From publication PMC11359531, “Establishment of Dissolution Test Method for Multi-Components in Traditional Chinese Medicine Preparations Based on In Vitro–In Vivo Correlation” (Pharmaceuticals, 2024)
Converted amounts (≈) assume the structure as drawn. Values belong to the molecule of their own block, whether it stands above or below them.

Key:
[1] = Pharmacokinetic study of the Q-markers in beagle dogs; details: dog
Experimental: An ACQUITY UPLC system from Waters was used for chromatography separation, equipped with a Waters Cortecs C18 column (1.7 μm, 2.1 mm × 50 mm) operated at a flow rate of 0.30 mL/min. The column temperature and auto-sampler temperature were set as 45 °C and 4 °C, respectively. The mobile phases were 10 mM ammonium acetate solution (pH 5.0 by acetic acid) (A) and acetonitrile (B) and the gradient elution used was as follows: 30–39% B from 0–3.3 min, 39–95% B from 3.3–5.4 min, 95% B from 5.4–7.4 min, 95–30% B from 7.4–13.5 min, and 30% B from 13.5–16.0 min. The injection volume was 3 μL. The AB SCIEX Qtrap™ 6500 LC-MS/MS system with electron spray ionization (ESI) source in multiple reaction monitoring (MRM) mode was used for MS analysis. The detection was performed under the following conditions: source temperature (at set point) at 550.0 °C, positive ion mode, GS1 at 40 psi, GS2 at 40 psi, CUR at 45 psi, CXP at 15 V, DP at 100 V, and EP at 10 V. Quantitative analysis of analytes in MRM mode was used to determine the transition of precursor ions to specific product ions (m/z): tetrahydropalmatine, m/z […] [M + H]+ → m/z 229.0 (collision energy, CE: 17 V), corydaline, m/z […] (CE: 17 V), protopin, m/z […] [M + H]+ → m/z 227.1 (CE: 23 V), allocryptopine, m/z […] [M + H]+ → m/z 373.2 (CE: 17 V), and byakangelicin, m/z 389.2 [M + H]+ → m/z 363.1 (CE: 17 V). The data were processed using MultiQuant™ 2.1 software purchased from SCIEX.
(§1) The standard solutions of tetrahydropalmatine, corydaline, protopin, α-allocryptopine, and byakangelicin were prepared by dissolving them in acetonitrile to obtain a mixed standard stock solution, which was further diluted with acetonitrile to prepare a series of different concentration gradient mixed standard solutions. An internal standard solution of 25 ng/mL was prepared from betamethasone solution (500 μg/mL) diluted with acetonitrile. Blank dog blood was collected through intravenous blood sampling, and plasma was obtained by centrifugation. To prepare the standard plasma sample, 25 μL of the mixed standard solution was added to 100 μL of blank plasma, and 400 μL of acetonitrile was added and vortexed for protein precipitation. The supernatant was acquired by centrifugation and blown dry with nitrogen. Then, 100 μL of acetonitrile was added to the dried supernatant, and the resulting solution was mixed to gain the standard plasma sample. Different mixed standard solution including a serial of concentrations of tetrahydropalmatine: 0.625–25 ng/mL, corydaline: 0.625–25 ng/mL, protopin: 0.1–4 ng/mL, α-allocryptopine: 0.1–4 ng/mL, byakangelicin: 18.75–750 ng/mL were applied to prepare standard plasma sample and quality control (QC) samples of plasma as follows: 1.25, 5, and 20 ng/mL for tetrahydropalmatine and corydaline, 0.2, 0.8, and 3.2 ng/mL for protopin and α-allocryptopine, and 37.5, 150, and 600 ng/mL for byakangelicin.
For pharmacokinetic study, six beagle dogs were used and housed in a professional animal breeding room with a relative humidity of 55–60% and a temperature of 25 °C for one week. The experimental operation was carried out in accordance with ethical requirements for animal experiments and approved by the Institutional Animal Care and Use Committee of the School of Pharmacy, Fudan University. The dogs had free access to drinking water and were fasted for 24 h before the experiment. The dogs were randomly divided into two groups, one group receiving an oral dose of 12 tablets with brand A (tetrahydropalmatine 2.5 mg, corydaline 0.963 mg, protopin 1.896 mg, α-allocryptopine 0.917 mg, and byakangelicin 2.783 mg), while the other group were given an intravenous dose of 2 mL of normal saline containing tetrahydropalmatine 19.75 μg, corydaline 4.54 μg, protopin 168.062 μg, α-allocryptopine 297.16 μg, and byakangelicin 78.68 μg. Blood samples of 2 mL were taken at 15, 30, 45, 60, 90, 120, 150, 180, 240, 360, 480, 720, and 1440 min after dosing.

[2] = Stability of Q-markers in plasma; set-up: species or system dog; details: n = 6
Experimental: as §1, with “[…],” for “0.2, 0.8, and 3.2 ng/mL for protopin and α-allocryptopine,”

[3] = Unit impulse response (UIR) fitting of pharmacokinetic data; details: best-fitted UIR, Akaike model
From the text: The Phoenix WinNonlin IVIVC tool was utilized to evaluate the relationship between in vivo drug dissolution rate and blood drug concentration, which utilizes the Unit Impulse Response (UIR) function for this purpose. By using intravenous administration as the input for the unit impulse response, the influence of drug absorption can be eliminated. The obtained UIR function will be utilized for the deconvolution of pharmacokinetic data to obtain the curve of cumulative drug absorption over time [50]. (8) Y(t)=A×exp[Alpha×(t×Ka−tlag)] in which Y(t) is unit impulse response, A is the coefficient value, Alpha is the exponential value, Ka is the absorption rate constant, tlag is the lag time.

[4] = Solubility of Q-markers in dissolution media, dose number D0; details: thermodynamic from solid
Experimental: The solubility of the compounds was determined at physiologically relevant pH values (0.1 M of HCl, pH 1.2; acetate buffer, pH 4.5; and phosphate buffer, pH 6.8) as those in dissolution medium, by adding excess compounds to specific medium, vortexing for 30 s, and shaking for 24 h at 37 °C and 120 rpm using a constant temperature shaker. The supernatant was then diluted with an appropriate amount of methanol, and the concentration of each compound was determined using the HPLC method described in Section 3.2. The solubility was evaluated using the dose (D0) values [48], which describe the relationship between solubility and maximum dose strength according to Equation (1). […] (1) D0=M0/V0/CS
M0 was the highest dose of each component under single administration, it should be noted that since there is no sense of the maximum oral dose for the ingredients in herbal preparation, the content of each component in a single dose of the preparation is taken as the maximum administered dose.

[5] = External validation of IVIVC model with another brand of YZTs; details: beagle, dog, blood, po
From the text: In order to further apply the identified in vivo correlated dissolution conditions to different batches of YZTs, another brand of YZTs was selected for external validation of the dissolution conditions and IVIVC model results. The dissolution data of different brands in the identified media were input into the established IVIVC model to obtain the predicted blood concentration–time curve and to compare the PE% between the predicted value and the actual value.

[6] = 0.1 M HCl, 37 °C, pH 1.2, simulated gastric fluid
[7] = acetate buffer, 37 °C, pH 4.5, aqueous buffer
[8] = phosphate buffer, 37 °C, pH 6.8, aqueous buffer

AUC(0-inf) ([1]; beagle, plasma, iv): 11.7 ng·h/mL
AUC(0-t) ([1]; beagle, plasma, iv): 11.1 ng·h/mL
Cmax ([1]; beagle, plasma, iv): 11.8 ng/mL
Tmax ([1]; beagle, plasma, iv): 5 min
half-life ([1]; beagle, plasma, iv): 46.5 min
AUC ([1]; beagle, plasma, po): 59.7 ng·h/mL
AUC(0-inf) ([1]; beagle, plasma, po): 65.3 ng·h/mL
AUC(0-t) ([1]; beagle, plasma, po): 59.7 ng·h/mL
Cmax ([1]; beagle, plasma, po): 27.3 ng/mL
Tmax ([1]; beagle, plasma, po): 60 min
bioavailability ([1]; beagle, plasma, po): 3.81%
half-life ([1]; beagle, plasma, po): 197 min
Relative content ([2]; 37.5 ng/mL, 6℃-6h): 90.02%
Relative content ([2]; 37.5 ng/mL, 20℃-24h): 93.00%
Relative content ([2]; 37.5 ng/mL, Freeze-thaw thrice): 92.93%
Relative content ([2]; 150 ng/mL, 6℃-6h): 93.99%
Relative content ([2]; 150 ng/mL, 20℃-24h): 93.39%
Relative content ([2]; 150 ng/mL, Freeze-thaw thrice): 93.32%
Relative content ([2]; 600 ng/mL, 6℃-6h): 88.54%
Relative content ([2]; 600 ng/mL, 20℃-24h): 89.73%
Relative content ([2]; 600 ng/mL, Freeze-thaw thrice): 89.66%
UIR parameter A1, Estimate [3]: 0.02 ng/mL
UIR parameter Ka, Estimate [3]: 2.23 h⁻¹
UIR parameter Tlag, Estimate [3]: 0.45 h
UIR parameter alpha1, Estimate [3]: 1.18 h⁻¹
solubility at 24 h [4, 6]: 2660 ± 56 µg/mL (≈ 7960 µM)
solubility at 24 h [4, 7]: 1290 ± 87.4 µg/mL (≈ 3860 µM)
solubility at 24 h [4, 8]: 7.63 ± 1.27 µg/mL (≈ 22.8 µM)
solubility at 24 h ([4]; water): 35.9 ± 5.85 µg/mL (≈ 107 µM)
AUC [5]: 54.5 ng·h/mL
Cmax [5]: 29.6 ng/mL
Molecule: COc1c2ccoc2c(OC[C@@H](O)C(C)(C)O)c2oc(=O)ccc12 [Byakangelicin, byakangelicin]

AUC(0-inf) ([1]; beagle, plasma, iv): 7.18 ng·h/mL
AUC(0-t) ([1]; beagle, plasma, iv): 6.5 ng·h/mL
Cmax ([1]; beagle, plasma, iv): 5.01 ng/mL
Tmax ([1]; beagle, plasma, iv): 5 min
half-life ([1]; beagle, plasma, iv): 237 min
AUC ([1]; beagle, plasma, po): 74.2 ng·h/mL
AUC(0-inf) ([1]; beagle, plasma, po): 81.1 ng·h/mL
AUC(0-t) ([1]; beagle, plasma, po): 74.2 ng·h/mL
Cmax ([1]; beagle, plasma, po): 24.8 ng/mL
Tmax ([1]; beagle, plasma, po): 90 min
bioavailability ([1]; beagle, plasma, po): 5.38%
half-life ([1]; beagle, plasma, po): 525 min
Relative content ([2]; 1.25 ng/mL, 6℃-6h): 98.22%
Relative content ([2]; 1.25 ng/mL, 20℃-24h): 98.02%
Relative content ([2]; 1.25 ng/mL, Freeze-thaw thrice): 97.95%
Relative content ([2]; 5 ng/mL, 6℃-6h): 93.89%
Relative content ([2]; 5 ng/mL, 20℃-24h): 102.35%
Relative content ([2]; 5 ng/mL, Freeze-thaw thrice): 102.28%
Relative content ([2]; 20 ng/mL, 6℃-6h): 107.01%
Relative content ([2]; 20 ng/mL, 20℃-24h): 100.80%
Relative content ([2]; 20 ng/mL, Freeze-thaw thrice): 100.73%
UIR parameter A1, Estimate [3]: 0.05 ng/mL
UIR parameter Ka, Estimate [3]: 1.46 h⁻¹
UIR parameter Tlag, Estimate [3]: 0.44 h
UIR parameter alpha1, Estimate [3]: 1.42 h⁻¹
solubility at 24 h [4, 6]: > 2380 µg/mL
solubility at 24 h [4, 7]: > 2380 µg/mL
solubility at 24 h [4, 8]: 2380 ± 348 µg/mL (≈ 6460 µM)
solubility at 24 h ([4]; water): 5.03 ± 0.85 µg/mL (≈ 13.6 µM)
AUC [5]: 34.3 ng·h/mL
Cmax [5]: 12 ng/mL
Molecule: COc1cc2c(cc1OC)[C@H]1[C@@H](C)c3ccc(OC)c(OC)c3CN1CC2 [Corydaline, corydaline]

AUC(0-inf) ([1]; beagle, plasma, iv): 10.9 ng·h/mL
AUC(0-t) ([1]; beagle, plasma, iv): 9.87 ng·h/mL
Cmax ([1]; beagle, plasma, iv): 11.4 ng/mL
Tmax ([1]; beagle, plasma, iv): 5 min
half-life ([1]; beagle, plasma, iv): 400 min
AUC ([1]; beagle, plasma, po): 136 ng·h/mL
AUC(0-inf) ([1]; beagle, plasma, po): 137 ng·h/mL
AUC(0-t) ([1]; beagle, plasma, po): 136 ng·h/mL
Cmax ([1]; beagle, plasma, po): 45.7 ng/mL
Tmax ([1]; beagle, plasma, po): 90 min
bioavailability ([1]; beagle, plasma, po): 10.8%
half-life ([1]; beagle, plasma, po): 234 min
Relative content ([2]; 1.25 ng/mL, 6℃-6h): 94.31%
Relative content ([2]; 1.25 ng/mL, 20℃-24h): 100.16%
Relative content ([2]; 1.25 ng/mL, Freeze-thaw thrice): 100.09%
Relative content ([2]; 5 ng/mL, 6℃-6h): 99.79%
Relative content ([2]; 5 ng/mL, 20℃-24h): 102.60%
Relative content ([2]; 5 ng/mL, Freeze-thaw thrice): 102.53%
Relative content ([2]; 20 ng/mL, 6℃-6h): 97.35%
Relative content ([2]; 20 ng/mL, 20℃-24h): 100.19%
Relative content ([2]; 20 ng/mL, Freeze-thaw thrice): 100.12%
solubility at 24 h [4, 6]: 655 ± 43.3 µg/mL (≈ 1840 µM)
solubility at 24 h [4, 7]: 2670 ± 539 µg/mL (≈ 7500 µM)
solubility at 24 h [4, 8]: 19.7 ± 1.87 µg/mL (≈ 55.4 µM)
solubility at 24 h ([4]; water): 18.9 ± 1.57 µg/mL (≈ 53.1 µM)
AUC [5]: 59.9 ng·h/mL
Cmax [5]: 16.4 ng/mL
Molecule: COc1cc2c(cc1OC)[C@@H]1Cc3ccc(OC)c(OC)c3CN1CC2 [Tetrahydropalmatine, tetrahydropalmatine]

Molecule: protopine
Bioavailability (absolute oral) ([1]; in vivo): 1.35%
Cl/F ([1]; in vivo, iv): 0.03 L/h
Cmax ([1]; in vivo, iv): 12.44 ng/mL
T1/2 ([1]; in vivo, iv): 274.64 min
Tmax ([1]; in vivo, iv): 5 min
Vz/F ([1]; in vivo, iv): 0.22 L
Cl/F ([1]; in vivo, po): 0.21 L/h
Cmax ([1]; in vivo, po): 1.63 ng/mL
Observed AUC ([1]; in vivo, po): 205.15
Observed Cmax ([1]; in vivo, po): 1.63 ng/mL
T1/2 ([1]; in vivo, po): 319.26 min
Tmax ([1]; in vivo, po): 90 min
Vz/F ([1]; in vivo, po): 1.64 L
Relative content ([2]; 0.2 ng/mL, 6℃-6h): 99.33%
Relative content ([2]; 0.2 ng/mL, 20℃-24h): 96.07%
Relative content ([2]; 0.2 ng/mL, Freeze-thaw thrice): 96.00%
Relative content ([2]; 0.5 ng/mL, 6℃-6h): 93.89%
Relative content ([2]; 0.5 ng/mL, 20℃-24h): 100.60%
Relative content ([2]; 0.5 ng/mL, Freeze-thaw thrice): 100.53%
Relative content ([2]; 3.2 ng/mL, 6℃-6h): 103.43%
Relative content ([2]; 3.2 ng/mL, 20℃-24h): 101.63%
Relative content ([2]; 3.2 ng/mL, Freeze-thaw thrice): 101.56%
